Reference: patent publication US9340555B2, “Compounds as tyrosine kinase modulators” (Allergan, Inc., priority 2009, dated 2016)

How the values were obtained:
[1] = target: VEGFR1 (Homo sapiens (Human), UniProt P17948); assay: Enzymic VEGFR1; format: biochemical
[2] = target: human VEGF receptor (VEGFR-2) (Homo sapiens (Human), UniProt P35968); assay: VEGFR2 Kinase Assay (Enzymic VEGFR2); format: biochemical; conditions: His-VEGFR-2 cytoplasmic domain, 3.6 µM ATP
Protocol: VEGFR2 Kinase Assay The cytoplasmic domain of the human VEGF receptor (VEGFR-2) was expressed as a Histidine-tagged fusion protein following infection of insect cells using an His engineered baculovirus. […] Kinase assays were performed in 96 well microtiter plates that were coated overnight with 30 µg of poly-Glu-[…]:1) in 10 mM Phosphate Buffered Saline (PBS), pH 7.2-7.4. The plates were incubated with 1% BSA and then washed four times with PBS prior to starting the reaction. […] Reactions were initiated by the addition 0.5 ng of purified protein. Following a ten minute incubation at 25° C., the reactions were washed four times with PBS containing 0.05% Tween-20. 100 µl of a monoclonal anti-phosphotyrosine antibody-peroxidase conjugate was diluted 1:10000 in PBS-Tween-20 and added to the wells for 30 minutes. Following four washes with PBS-Tween-20, 100 µl of 0-phenylenediamine Dihydrochloride in Phosphate-citrate buffer, containing urea hydrogen peroxide, was added to the wells for 7 minutes as a colorimetric substrate for the peroxidase. […] IC50 values for compound inhibition were calculated directly from graphs of optical density (arbitrary units) versus compound concentration following subtraction of blank values.

[3] = target: PDGFRβ (Homo sapiens (Human), UniProt P09619); assay: Enzymic PDGFRβ; format: biochemical
[4] = target: VEGFR2 (Homo sapiens (Human), UniProt P35968); assay: VEGF Stimulated Ca++ Signal In Vitro (Cellular VEGFR2, FLIPR); format: cell-based; conditions: HUVEC, VEGF stimulation (5 ng/mL), intracellular calcium
VEGFR2, sequence (P35968 20-1356): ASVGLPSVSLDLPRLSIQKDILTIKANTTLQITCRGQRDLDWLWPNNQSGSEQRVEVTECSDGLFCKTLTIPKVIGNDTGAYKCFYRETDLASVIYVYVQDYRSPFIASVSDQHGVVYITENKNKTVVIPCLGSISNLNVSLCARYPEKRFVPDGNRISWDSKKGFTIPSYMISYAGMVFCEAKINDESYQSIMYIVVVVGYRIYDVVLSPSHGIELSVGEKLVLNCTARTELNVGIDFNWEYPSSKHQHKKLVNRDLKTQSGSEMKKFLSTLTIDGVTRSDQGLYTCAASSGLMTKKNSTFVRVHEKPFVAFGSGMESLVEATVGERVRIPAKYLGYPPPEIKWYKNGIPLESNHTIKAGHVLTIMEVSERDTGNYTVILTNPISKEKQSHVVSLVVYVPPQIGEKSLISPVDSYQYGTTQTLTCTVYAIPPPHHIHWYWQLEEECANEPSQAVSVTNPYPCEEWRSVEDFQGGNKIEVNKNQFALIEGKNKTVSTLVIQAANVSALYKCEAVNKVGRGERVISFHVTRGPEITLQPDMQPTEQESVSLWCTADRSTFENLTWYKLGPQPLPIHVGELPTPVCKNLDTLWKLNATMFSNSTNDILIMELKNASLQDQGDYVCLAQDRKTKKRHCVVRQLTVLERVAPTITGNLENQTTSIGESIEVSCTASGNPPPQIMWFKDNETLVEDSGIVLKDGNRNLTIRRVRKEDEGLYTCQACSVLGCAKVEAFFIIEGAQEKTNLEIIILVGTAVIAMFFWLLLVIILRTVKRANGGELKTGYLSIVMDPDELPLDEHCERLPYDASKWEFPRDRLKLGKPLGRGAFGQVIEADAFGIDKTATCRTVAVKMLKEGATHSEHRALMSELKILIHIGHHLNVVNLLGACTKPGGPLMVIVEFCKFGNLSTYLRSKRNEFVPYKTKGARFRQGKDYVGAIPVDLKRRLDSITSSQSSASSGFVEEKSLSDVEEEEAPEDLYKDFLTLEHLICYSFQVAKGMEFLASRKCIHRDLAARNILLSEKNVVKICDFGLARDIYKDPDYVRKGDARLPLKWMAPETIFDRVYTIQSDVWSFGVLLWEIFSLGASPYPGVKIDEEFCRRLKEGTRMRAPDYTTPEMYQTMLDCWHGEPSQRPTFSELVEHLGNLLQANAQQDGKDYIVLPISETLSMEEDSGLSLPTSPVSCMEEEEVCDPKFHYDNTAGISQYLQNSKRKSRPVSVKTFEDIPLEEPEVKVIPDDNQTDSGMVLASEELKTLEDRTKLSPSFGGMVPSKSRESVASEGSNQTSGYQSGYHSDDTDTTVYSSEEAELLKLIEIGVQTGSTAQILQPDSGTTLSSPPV

PDGFRβ, sequence (P09619 33-1106, species assumed): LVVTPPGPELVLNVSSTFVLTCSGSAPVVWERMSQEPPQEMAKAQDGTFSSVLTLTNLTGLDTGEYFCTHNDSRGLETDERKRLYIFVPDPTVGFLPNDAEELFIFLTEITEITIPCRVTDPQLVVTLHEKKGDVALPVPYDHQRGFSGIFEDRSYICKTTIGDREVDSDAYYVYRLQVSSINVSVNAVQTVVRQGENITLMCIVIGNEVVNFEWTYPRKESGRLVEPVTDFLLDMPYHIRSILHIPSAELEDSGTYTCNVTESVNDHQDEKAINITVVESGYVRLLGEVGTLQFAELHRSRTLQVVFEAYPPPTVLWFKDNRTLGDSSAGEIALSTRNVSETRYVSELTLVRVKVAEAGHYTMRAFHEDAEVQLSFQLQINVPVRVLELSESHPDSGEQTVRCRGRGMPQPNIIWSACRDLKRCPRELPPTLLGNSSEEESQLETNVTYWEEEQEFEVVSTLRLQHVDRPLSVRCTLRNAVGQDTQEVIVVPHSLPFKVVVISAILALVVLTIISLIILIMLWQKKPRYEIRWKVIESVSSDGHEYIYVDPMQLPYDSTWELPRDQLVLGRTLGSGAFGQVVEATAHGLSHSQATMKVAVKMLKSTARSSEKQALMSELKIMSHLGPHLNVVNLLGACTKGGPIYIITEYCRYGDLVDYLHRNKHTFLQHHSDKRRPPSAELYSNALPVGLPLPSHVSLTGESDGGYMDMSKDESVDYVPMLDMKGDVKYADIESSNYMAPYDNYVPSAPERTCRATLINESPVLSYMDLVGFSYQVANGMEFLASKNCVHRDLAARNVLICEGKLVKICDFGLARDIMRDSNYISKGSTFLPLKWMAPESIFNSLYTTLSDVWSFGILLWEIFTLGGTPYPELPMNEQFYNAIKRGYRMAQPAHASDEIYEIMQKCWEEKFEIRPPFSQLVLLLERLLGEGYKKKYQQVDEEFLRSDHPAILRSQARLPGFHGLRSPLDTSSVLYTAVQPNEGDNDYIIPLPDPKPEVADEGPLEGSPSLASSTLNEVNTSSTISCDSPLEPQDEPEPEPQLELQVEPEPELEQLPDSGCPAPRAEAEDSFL
VEGFR1, sequence (P17948 27-1338, species assumed): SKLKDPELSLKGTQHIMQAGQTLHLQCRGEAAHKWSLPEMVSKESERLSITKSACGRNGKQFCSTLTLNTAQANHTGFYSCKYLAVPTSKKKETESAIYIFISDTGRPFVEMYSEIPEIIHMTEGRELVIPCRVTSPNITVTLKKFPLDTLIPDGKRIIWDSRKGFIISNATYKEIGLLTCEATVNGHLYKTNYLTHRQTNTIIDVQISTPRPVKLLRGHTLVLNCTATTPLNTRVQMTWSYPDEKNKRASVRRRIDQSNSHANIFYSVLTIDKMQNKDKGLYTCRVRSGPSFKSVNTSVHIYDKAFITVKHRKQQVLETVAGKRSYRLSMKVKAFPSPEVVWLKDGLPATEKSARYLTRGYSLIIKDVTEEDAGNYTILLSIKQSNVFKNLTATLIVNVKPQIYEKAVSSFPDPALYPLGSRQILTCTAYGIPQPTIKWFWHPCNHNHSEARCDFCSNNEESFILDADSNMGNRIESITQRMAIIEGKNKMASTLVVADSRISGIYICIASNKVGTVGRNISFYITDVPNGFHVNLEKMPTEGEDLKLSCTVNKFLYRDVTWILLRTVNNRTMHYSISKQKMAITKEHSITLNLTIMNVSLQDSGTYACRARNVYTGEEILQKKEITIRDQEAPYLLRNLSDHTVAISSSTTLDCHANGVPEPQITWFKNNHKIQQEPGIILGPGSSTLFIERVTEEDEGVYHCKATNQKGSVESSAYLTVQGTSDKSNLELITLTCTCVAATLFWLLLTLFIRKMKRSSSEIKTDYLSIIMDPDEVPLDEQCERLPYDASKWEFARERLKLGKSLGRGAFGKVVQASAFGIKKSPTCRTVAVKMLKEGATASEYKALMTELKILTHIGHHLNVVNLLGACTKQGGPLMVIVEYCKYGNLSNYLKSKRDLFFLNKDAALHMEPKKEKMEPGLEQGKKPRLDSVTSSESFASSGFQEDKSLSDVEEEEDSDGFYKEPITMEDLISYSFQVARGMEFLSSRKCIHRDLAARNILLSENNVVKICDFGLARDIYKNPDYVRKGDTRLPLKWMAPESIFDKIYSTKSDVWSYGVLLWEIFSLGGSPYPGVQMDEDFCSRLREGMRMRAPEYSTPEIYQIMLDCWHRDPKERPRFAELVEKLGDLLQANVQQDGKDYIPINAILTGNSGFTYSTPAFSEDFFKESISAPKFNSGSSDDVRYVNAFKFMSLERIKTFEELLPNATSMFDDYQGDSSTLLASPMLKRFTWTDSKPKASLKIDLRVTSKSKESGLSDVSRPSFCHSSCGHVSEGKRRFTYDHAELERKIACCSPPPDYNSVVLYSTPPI
human VEGF receptor (VEGFR-2), sequence (P35968 786-1356): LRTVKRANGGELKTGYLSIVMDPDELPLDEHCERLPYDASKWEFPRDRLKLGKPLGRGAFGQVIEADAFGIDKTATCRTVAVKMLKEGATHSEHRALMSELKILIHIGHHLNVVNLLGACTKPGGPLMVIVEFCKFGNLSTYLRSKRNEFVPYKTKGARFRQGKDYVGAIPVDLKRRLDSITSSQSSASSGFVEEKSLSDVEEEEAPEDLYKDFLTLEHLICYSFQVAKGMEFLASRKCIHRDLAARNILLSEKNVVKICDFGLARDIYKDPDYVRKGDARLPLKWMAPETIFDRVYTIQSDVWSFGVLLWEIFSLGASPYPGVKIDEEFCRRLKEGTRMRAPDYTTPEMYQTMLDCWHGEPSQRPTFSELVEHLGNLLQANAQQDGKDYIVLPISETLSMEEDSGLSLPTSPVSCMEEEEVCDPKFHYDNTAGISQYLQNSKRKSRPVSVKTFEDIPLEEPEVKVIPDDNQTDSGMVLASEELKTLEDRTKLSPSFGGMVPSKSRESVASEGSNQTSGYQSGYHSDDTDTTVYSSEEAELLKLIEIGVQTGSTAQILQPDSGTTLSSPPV

| Compound | IC50 [1] | IC50 [2] | IC50 [3] | IC50 [4] |
| --- | --- | --- | --- | --- |
| Cc1ccc(F)c(NC(=O)Nc2ccc(Oc3ccnc4cc(C(=O)NCCCN5CCOC(CO)C5)sc34)cc2)c1 (centres unmarked) [Example 16, 7-[4-({[(2-fluoro-5-methylphenyl)amino]carbonyl}amino)phenoxy]-N-{3-[2-(hydroxymethyl)morpholin-4-yl]propyl}thieno[3,2-b]pyridine-2-carboxamide] | 10 nM | 7 nM | 15 nM | – |
| COC(=O)CNCCCNC(=O)c1cc2nccc(Oc3ccc(NC(=O)Nc4cc(C)ccc4F)c(F)c3)c2s1 [Example 25, methyl ({3-[({7-[3-fluoro-4-({[(2-fluoro-5-methylphenyl)amino]carbonyl}amino)phenoxy]thieno[3,2-b]pyridin-2-yl}carbonyl)amino]propyl}amino)acetate] | 8 nM | 5 nM | 11 nM | – |
| COC(=O)CN(CCCNC(=O)c1cc2nccc(Oc3ccc(NC(=O)Nc4cc(C)ccc4F)c(F)c3)c2s1)CC(=O)OC [Example 26, dimethyl 2,2′-({3-[({7-[3-fluoro-4-({[(2-fluoro-5-methylphenyl)amino]carbonyl}amino)phenoxy]thieno[3,2-b]pyridin-2-yl}carbonyl)amino]propyl}imino)diacetate] | 10 nM | 5 nM | 12 nM | – |
| COC(=O)CN(CCNC(=O)c1cc2nccc(Oc3ccc(NC(=O)Nc4cc(C)ccc4F)c(F)c3)c2s1)CC(=O)OC [Example 27, dimethyl 2,2′-({2-[({7-[3-fluoro-4-({[(2-fluoro-5-methylphenyl)amino]carbonyl}amino)phenoxy]thieno[3,2-b]pyridin-2-yl}carbonyl)amino]ethyl}imino)diacetate] | 11 nM | 16 nM | 17 nM | – |
| COC(=O)C1CCN(C(=O)c2cc3nccc(Oc4ccc(NC(=O)Nc5cc(C)ccc5F)c(F)c4)c3s2)C1 (centres unmarked) [Example 28, methyl 1-({7-[3-fluoro-4-({[(2-fluoro-5-methylphenyl)amino]carbonyl}amino)phenoxy]thieno[3,2-b]pyridin-2-yl}carbonyl)pyrrolidine-3-carboxylate] | 8 nM | 5 nM | 17 nM | – |
| CCOC(=O)CN1CCN(C(=O)CN2CCN(C(=O)c3cc4nccc(Oc5ccc(NC(=O)Nc6cc(C)ccc6F)c(F)c5)c4s3)CC2)CC1 [Example 29, ethyl (4-{[4-({7-[3-fluoro-4-({[(2-fluoro-5-methylphenyl)amino]carbonyl}amino)phenoxy]thieno[3,2-b]pyridin-2-yl}carbonyl)piperazin-1-yl]acetyl}piperazin-1-yl)acetate] | 10 nM | 5 nM | 13 nM | – |
| CCOC(=O)CN1CCN(C(=O)c2cc3nccc(Oc4ccc(NC(=O)Nc5cc(C)ccc5F)c(F)c4)c3s2)CC1 [Example 30, ethyl [4-({7-[3-fluoro-4-({[(2-fluoro-5-methylphenyl)amino]carbonyl}amino)phenoxy]thieno[3,2-b]pyridin-2-yl}carbonyl)piperazin-1-yl]acetate] | 112 nM | 7 nM | 17 nM | – |
| COC(=O)CNCCNC(=O)c1cc2nccc(Oc3ccc(NC(=O)Nc4cc(C)ccc4F)c(F)c3)c2s1 [Example 31, methyl ({2-[({7-[3-fluoro-4-({[(2-fluoro-5-methylphenyl)amino]carbonyl}amino)phenoxy]thieno[3,2-b]pyridin-2-yl}carbonyl)amino]ethyl}amino)acetate] | 9 nM | 9 nM | 13 nM | – |
| Cc1ccc(F)c(NC(=O)Nc2ccc(Oc3ccnc4cc(C(=O)NCCCN5CCCC(CO)C5)sc34)cc2F)c1 (centres unmarked) [Example 36, 7-[3-fluoro-4-({[(2-fluoro-5-methylphenyl)amino]carbonyl}amino)phenoxy]-N-{3-[3-(hydroxymethyl)piperidin-1-yl]propyl}thieno[3,2-b]pyridine-2-carboxamide] | 8 nM | 7 nM | – | – |
| Cc1ccc(F)c(NC(=O)Nc2ccc(Oc3ccnc4cc(C(=O)NCCCN5CCCC5)sc34)cc2F)c1 [Example 43, 7-[3-fluoro-4-({[(2-fluoro-5-methylphenyl)amino]carbonyl}amino)phenoxy]-N-(3-pyrrolidin-1-ylpropyl)thieno[3,2-b]pyridine-2-carboxamide] | – | 3 nM | – | 6 nM |
| Cc1ccc(F)c(NC(=O)Nc2ccc(Oc3ccnc4cc(C(=O)NCCCNC(=O)OC(C)(C)C)sc34)cc2F)c1 [Example 44, tert-butyl {3-[({7-[3-fluoro-4-({[(2-fluoro-5-methylphenyl)amino]carbonyl}amino)phenoxy]thieno[3,2-b]pyridin-2-yl}carbonyl)amino]propyl}carbamate] | – | 11 nM | – | 16 nM |
| COC(=O)CC[C@H](NC(=O)c1cc2nccc(Oc3ccc(NC(=O)Nc4cc(C)ccc4F)c(F)c3)c2s1)C(=O)OC [Example 54, dimethyl (2S)-2-[({7-[3-fluoro-4-({[(2-fluoro-5-methylphenyl)amino]carbonyl}amino)phenoxy]thieno[3,2-b]pyridin-2-yl}carbonyl)amino]pentanedioate] | – | 34 nM | – | 4 nM |
| Cc1ccc(F)c(NC(=O)Nc2ccc(Oc3ccnc4cc(C(=O)NCCCN5CCCCC5)sc34)cc2)c1 [Example 66, 7-[4-({[(2-fluoro-5-methylphenyl)amino]carbonyl}amino)phenoxy]-N-(3-piperidin-1-ylpropyl)thieno[3,2-b]pyridine-2-carboxamide] | – | 4 nM | 16 nM | 16 nM |
| Cc1ccc(F)c(NC(=O)Nc2ccc(Oc3ccnc4cc(C(=O)NCCCN5CCN(C)CC5)sc34)cc2)c1 [Example 67, 7-[4-({[(2-fluoro-5-methylphenyl)amino]carbonyl}amino)phenoxy]-N-[3-(4-methylpiperazin-1-yl)propyl]thieno[3,2-b]pyridine-2-carboxamide] | – | 2 nM | 9 nM | 2 nM |
| Cc1ccc(F)c(NC(=O)Nc2ccc(Oc3ccnc4cc(C(=O)NCCCN5CCCC5)sc34)cc2)c1 [Example 68, 7-[4-({[(2-fluoro-5-methylphenyl)amino]carbonyl}amino)phenoxy]-N-(3-pyrrolidin-1-ylpropyl)thieno[3,2-b]pyridine-2-carboxamide] | – | 6 nM | 16 nM | 20 nM |
| Cc1ccoc1C(=O)Nc1cccc(Oc2ccnc3cc(C(=O)O)sc23)c1 [Example 72, 7-{3-[(3-methyl-2-furoyl)amino]phenoxy}thieno[3,2-b]pyridine-2-carboxylic acid] | – | 39 nM | 920 nM | 162 nM |
| Cc1ccoc1C(=O)Nc1cccc(Oc2ccnc3cc(C(=O)NO)sc23)c1 [Example 75, N-hydroxy-7-{3-[(3-methyl-2-furoyl)amino]phenoxy}thieno[3,2-b]pyridine-2-carboxamide] | – | 11 nM | 277 nM | 16 nM |

The remaining lines, values ahead:

| IC50 [1] | IC50 [2] | IC50 [3] | IC50 [4] | Compound |
| --- | --- | --- | --- | --- |
| – | 7 nM | – | 10 nM | Cc1ccc(F)c(NC(=O)Nc2ccc(Oc3ccnc4cc(C(=O)NCCCN)sc34)cc2F)c1 [Example 45, N-(3-aminopropyl)-7-[3-fluoro-4-({[(2-fluoro-5-methylphenyl)amino]carbonyl}amino)phenoxy]thieno[3,2-b]pyridine-2-carboxamide] |
| 16 nM | 20 nM | – | – | CCOC(=O)CCCNC(=O)c1cc2nccc(Oc3ccc(NC(=O)Nc4cc(C)ccc4F)cc3)c2s1 [Example 56, ethyl 4-[({7-[4-({[(2-fluoro-5-methylphenyl)amino]carbonyl}amino)phenoxy]thieno[3,2-b]pyridin-2-yl}carbonyl)amino]butanoate] |
| 7 nM | 13 nM | – | – | Cc1ccc(F)c(NC(=O)Nc2ccc(Oc3ccnc4cc(C(=O)NCCCC(=O)O)sc34)cc2F)c1 [Example 64, 4-[({7-[3-fluoro-4-({[(2-fluoro-5-methylphenyl)amino]carbonyl}amino)phenoxy]thieno[3,2-b]pyridin-2-yl}carbonyl)amino]butanoic acid] |
| – | 20 nM | 223 nM | 87 nM | Cc1ccc(F)c(NC(=O)c2cccc(Oc3ccnc4cc(C(=O)O)sc34)c2)c1 [Example 84, 7-(3-{[(2-fluoro-5-methylphenyl)amino]carbonyl}phenoxy)thieno[3,2-b]pyridine-2-carboxylic acid] |
| – | 10 nM | 74 nM | 16 nM | CCNC(=O)c1cc2nccc(Oc3cccc(C(=O)Nc4cc(C)ccc4F)c3)c2s1 [Example 85, N-ethyl-7-(3-{[(2-fluoro-5-methylphenyl)amino]carbonyl}phenoxy)thieno[3,2-b]pyridine-2-carboxamide] |
| – | 7 nM | 206 nM | 64 nM | CCN(CC)C(=O)c1cc2nccc(Oc3cccc(C(=O)Nc4cc(C)ccc4F)c3)c2s1 [Example 86, N,N-diethyl-7-(3-{[(2-fluoro-5-methylphenyl)amino]carbonyl}phenoxy)thieno[3,2-b]pyridine-2-carboxamide] |
| – | 16 nM | 59 nM | 9 nM | COC(=O)CNCCCNC(=O)c1cc2nccc(Oc3cccc(C(=O)Nc4cc(C)ccc4F)c3)c2s1 [Example 87, Methyl {[3-({[7-(3-{[(2-fluoro-5-methylphenyl)amino]carbonyl}phenoxy)thieno[3,2-b]pyridin-2-yl]carbonyl}amino)propyl]amino}acetate] |
